According to ChEMBL document CHEMBL1124186, “Synthesis and evaluation of tylosin-related macrolides modified at the aldehyde function: a new series of orally effective antibiotics” (1988):
In brackets after ≈: the same amount, converted by molar mass.

What was measured:
Bacteroides fragilis [1] = assay: In vitro antimicrobial activity against anaerobic bacteria bacteroides fragilis 111; type: functional
Bacteroides fragilis [2] = assay: In vitro antimicrobial activity against anaerobic bacteria bacteroides fragilis 1877; type: functional
Bacteroides fragilis [3] = assay: In vitro antimicrobial activity against anaerobic bacteria bacteroides fragilis 1936B,; type: functional
Eikenella corrodens = assay: In vitro antimicrobial activity against anaerobic bacteria bacteroides corrodens 1874; type: functional
Phocaeicola vulgatus = assay: In vitro antimicrobial activity against anaerobic bacteria bacteroides vulgatus 1211; type: functional
[4] = system: Prevotella melaninogenica; assay: In vitro antimicrobial activity against anaerobic bacteria bacteroides melaninogenicus 1856,; type: functional
[5] = system: Bacteroides thetaiotaomicron; assay: In vitro antimicrobial activity against anaerobic bacteria bacteroides thetaiotaomicron 1438; type: functional
Clostridioides difficile = assay: In vitro antimicrobial activity against anaerobic bacteria Clostridium difficile 2994; type: functional
Clostridium perfringens = assay: In vitro antimicrobial activity against anaerobic bacteria clostridium perfringens 81,; type: functional
Chlamydia trachomatis = assay: In vitro antimicrobial activity against chlamydia trachomatis.; type: functional
Collinsella aerofaciens = assay: In vitro antimicrobial activity against anaerobic bacteria aerofaciens 1235; type: functional
Fusobacterium = assay: In vitro antimicrobial activity against anaerobic bacteria fusobacterium symbiosum 1470; type: functional
Haemophilus influenzae = assay: In vitro antimicrobial activity against Haemophilus influenzae.; type: functional
[6] = In vitro antimicrobial activity against anaerobic bacteria peptostreptococcus intermedius 1264; type: functional
[7] = system: Peptoniphilus asaccharolyticus; assay: In vitro antimicrobial activity against anaerobic bacteria peptococcus asaccharolyticus 1302; type: functional
Anaerococcus prevotii = assay: In vitro antimicrobial activity against anaerobic bacteria peptococcus prevoti 1281; type: functional
Cutibacterium acnes = assay: In vitro antimicrobial activity against anaerobic bacteria propionibacterium acnes 79; type: functional
Staphylococcus aureus = assay: In vitro antimicrobial activity against Staphylococcus aureus X1; type: functional
Streptococcus pyogenes [8] = assay: In vivo effective dose against experimental infections in rodent caused by Streptococcus pyogenes C203 when administered sc; type: functional
Streptococcus pneumoniae = assay: In vitro antimicrobial activity against Streptococcus pneumoniae; type: functional
[9] = system: Staphylococcus epidermidis; assay: In vitro antimicrobial activity against Staphylococcus epidermidis EPI1; type: functional
Enterococcus faecium = assay: In vitro antimicrobial activity against Streptococcus faecium X66; type: functional, streptococcus fae-cium
Streptococcus pyogenes [10] = assay: In vitro antimicrobial activity against Streptococcus pyogenes C203; type: functional
[11] = system: Prevotella melaninogenica; assay: In vitro antimicrobial activity against anaerobic bacteria bacteroides melaninogenicus 2736; type: functional
[12] = system: Fusobacterium necrophorum; assay: In vitro antimicrobial activity against anaerobic bacteria usobacterium necrophorum 6054A; type: functional
[13] = system: Peptostreptococcus anaerobius; assay: In vitro antimicrobial activity against anaerobic bacteria eubacterium peptostreptococcus anaerobius 1428,; type: functional
Streptococcus pyogenes [14] = assay: In vivo effective dose against experimental infections in rodent caused by Streptococcus pyogenes C203 when administered orally; type: functional; conditions: po

CC[C@H]1OC(=O)C[C@@H](O)[C@H](C)[C@@H](O[C@@H]2O[C@H](C)[C@@H](O)[C@H](N(C)C)[C@H]2O)[C@@H](CCO)C[C@@H](C)C(=O)/C=C/C(C)=C/[C@@H]1CO
MIC (Bacteroides fragilis [1]): > 8 µg/mL
MIC (Bacteroides fragilis [2]): > 8 µg/mL
MIC (Bacteroides fragilis [3]): > 8 µg/mL
MIC (Eikenella corrodens): > 8 µg/mL
MIC (Phocaeicola vulgatus): > 8 µg/mL
MIC [4]: > 8 µg/mL
MIC [5]: > 8 µg/mL
MIC (Clostridioides difficile): 4 µg/mL (≈ 6.67 µM)
MIC (Clostridium perfringens): 4 µg/mL (≈ 6.67 µM)
MIC (Chlamydia trachomatis): > 1 µg/mL
MIC (Collinsella aerofaciens): 8 µg/mL (≈ 13.3 µM)
MIC (Fusobacterium): > 8 µg/mL
MIC (Haemophilus influenzae): 32 µg/mL (≈ 53.4 µM)
MIC [6]: > 8 µg/mL
MIC [7]: > 8 µg/mL
MIC (Anaerococcus prevotii): > 8 µg/mL
MIC (Cutibacterium acnes): 4 µg/mL (≈ 6.67 µM)
MIC (Staphylococcus aureus): 64 µg/mL (≈ 107 µM)
ED50 (Streptococcus pyogenes [8]): > 10 mg/kg
MIC (Streptococcus pneumoniae): 64 µg/mL (≈ 107 µM)
MIC [9]: 32 µg/mL (≈ 53.4 µM)
MIC (Enterococcus faecium): 64 µg/mL (≈ 107 µM)
MIC (Streptococcus pyogenes [10]): 16 µg/mL (≈ 26.7 µM)
MIC [11]: > 8 µg/mL
MIC [12]: 4 µg/mL (≈ 6.67 µM)
MIC [13]: > 8 µg/mL
ED50 (Streptococcus pyogenes [14]): > 100 mg/kg
